Results: BindingDB's records for doi:10.1021/np9704922 (University of Naples Federico II, 1998)

Assay: Inhibition of human synovial secretory PLA2

CC1(C)CCC[C@]2(C)[C@H]3CC[C@@H]4[C@H](O)O[C@@H](C5=CC(=O)OC5O)C[C@H]4[C@]3(C)CC[C@@H]12 (stereo partly specified) [Petrosaspongiolide P]
IC50: 3.8 µM
